Experimental data from patent US8247211B2, “Glycopeptide antibiotics” (American Cyanamid Company, priority 2001, dated 2012).
In brackets after ≈: the same amount, converted by molar mass.

Assays:
Assay in all cases: In vitro antibacterial evaluation: minimum inhibitory concentration (MIC), broth dilution method
Type in all cases: cell-based
Enterococcus sp. = settings: 18 hours at 35° C.
Outline: (§1)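 Test strains, among them recent clinical isolates carrying methicillin, penicillin and/or vancomycin resistance, were inoculated at 5×10^5 CFU/mL. A broth dilution series spanning 64-0.06 μg/mL in Muller-Hinton II […] (NCCLS M7-A2) defined the MIC as the lowest growth-inhibiting concentration.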

Escherichia coli = settings: 18 hours at 35° C.
Outline: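 Broth dilution per NCCLS M7-A2 in Muller-Hinton II […], inoculum 5×10^5 CFU/mL, antibiotic tested over 64-0.06 μg/mL. MIC is taken as the lowest concentration that inhibits growth. Panel includes recent clinical isolates resistant to methicillin, penicillin and/or vancomycin.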

Staphylococcus sp. = settings: for MIC Coagulase Negative Staphylococcus (GC 6257): strain GC 6257; for MIC Staphylococcus aureus (GC 3051): strain GC 3051; for MIC Staphylococcus aureus (GC 3053): strain GC 3053
Outline: as §1

Streptococcus sp. = settings: 18 hours at 35° C.
Outline: as §1

[1] = Enterococcus faecalis (ATCC 29212)
[2] = Enterococcus faecalis (GC 2242)
[3] = Enterococcus faecalis (GC 4552)
[4] = Enterococcus faecalis (GC 4553)
[5] = Enterococcus faecalis (GC 4554)
[6] = Streptococcus agalactiae (GC 4564)
[7] = Streptococcus pneumoniae (GC 4565)
[8] = broth dilution, inoculum 5×10^5 CFU/mL
[9] = broth dilution, 18 hours at 35° C.

CCCCCNC(=O)OCC1OC(OC2C(CO)OC(Oc3ccc(CC4NC(=O)C(C(C)c5ccccc5)NC(=O)CNC(=O)C(CO)NC(=O)C(C(O)C5CNC(=N)N5C5OC(CO)C(O)C(O)C5O)NC(=O)C(C(O)C5CNC(=N)N5)NC4=O)cc3)C(O)C2O)C(O)C(O)C1O (stereo not drawn) [Example 251b, γ-O-[(Pentylamino)carbonyl]-cyclo[glycyl-β-methylphenylalanyl-O-(4-O-hexopyranosylhexopyranosyl)tyrosyl-3-(2-iminoimidazolidin-4-yl)seryl-3-(3-hexopyranosyl-2-iminoimidazolidin-4-yl)serylseryl]]
MIC Enterococcus avium (GC 4558) (Enterococcus sp.; Enterococcus avium (GC 4558)): 64 µg/mL (≈ 45.4 µM)
MIC Enterococcus faecalis (ATCC 29212) (Enterococcus sp.; [1]): 64 µg/mL (≈ 45.4 µM)
MIC Enterococcus faecalis (GC 2242) (Enterococcus sp.; [2]): 32 µg/mL (≈ 22.7 µM)
MIC Enterococcus faecalis (GC 4552) (Enterococcus sp.; [3]): 64 µg/mL (≈ 45.4 µM)
MIC Enterococcus faecalis (GC 4553) (Enterococcus sp.; [4]): 64 µg/mL (≈ 45.4 µM)
MIC Enterococcus faecalis (GC 4554) (Enterococcus sp.; [5]): 64 µg/mL (≈ 45.4 µM)
MIC Enterococcus faecium (GC 2243) (Enterococcus sp.; Enterococcus faecium (GC 2243)): 64 µg/mL (≈ 45.4 µM)
MIC Enterococcus faecium (GC 4556) (Enterococcus sp.; Enterococcus faecium (GC 4556)): 64 µg/mL (≈ 45.4 µM)
MIC Enterococcus faecium (GC 4557) (Enterococcus sp.; Enterococcus faecium (GC 4557)): 4 µg/mL (≈ 2.84 µM)
MIC Escherichia coli (ATCC 25922) (Escherichia coli): >64 µg/mL
MIC Escherichia coli (GC 4559) (Escherichia coli): >64 µg/mL
MIC Escherichia coli (GC 4560) (Escherichia coli): 2 µg/mL (≈ 1.42 µM)
MIC Coagulase Negative Staphylococcus (GC 4547) (Staphylococcus sp.; Coagulase Negative Staphylococcus (GC 4547), 18 hours at 35° C.): 8 µg/mL (≈ 5.68 µM)
MIC Coagulase Negative Staphylococcus (GC 4548) (Staphylococcus sp.; Coagulase Negative Staphylococcus (GC 4548), 18 hours at 35° C.): 8 µg/mL (≈ 5.68 µM)
MIC Coagulase Negative Staphylococcus (GC 4549) (Staphylococcus sp.; Coagulase Negative Staphylococcus (GC 4549), 18 hours at 35° C.): 4 µg/mL (≈ 2.84 µM)
MIC Coagulase Negative Staphylococcus (GC 4551) (Staphylococcus sp.; Coagulase Negative Staphylococcus (GC 4551), 18 hours at 35° C.): 16 µg/mL (≈ 11.4 µM)
MIC Coagulase Negative Staphylococcus (ID-3941) (Staphylococcus sp.; Coagulase Negative Staphylococcus (ID-3941), 18 hours at 35° C.): 4 µg/mL (≈ 2.84 µM)
MIC Staphylococcus aureus (ATCC 29213) (Staphylococcus sp.; Staphylococcus aureus (ATCC 29213), 18 hours at 35° C.): 16 µg/mL (≈ 11.4 µM)
MIC Staphylococcus aureus (GC 1131) (Staphylococcus sp.; Staphylococcus aureus (GC 1131), 18 hours at 35° C.): 8 µg/mL (≈ 5.68 µM)
MIC Staphylococcus aureus (GC 4541) (Staphylococcus sp.; Staphylococcus aureus (GC 4541), 18 hours at 35° C.): 8 µg/mL (≈ 5.68 µM)
MIC Staphylococcus aureus (GC 4542) (Staphylococcus sp.; Staphylococcus aureus (GC 4542), 18 hours at 35° C.): 8 µg/mL (≈ 5.68 µM)
MIC Staphylococcus aureus (GC 4544) (Staphylococcus sp.; Staphylococcus aureus (GC 4544), 18 hours at 35° C.): 16 µg/mL (≈ 11.4 µM)
MIC Staphylococcus aureus (GC 4545) (Staphylococcus sp.; Staphylococcus aureus (GC 4545), 18 hours at 35° C.): 8 µg/mL (≈ 5.68 µM)
MIC Staphylococcus aureus-SMITH (GC 4543) (Staphylococcus sp.; Staphylococcus aureus-SMITH (GC 4543), 18 hours at 35° C.): 8 µg/mL (≈ 5.68 µM)
MIC Staphylococcus haemolyticus (GC 4546) (Staphylococcus sp.; Staphylococcus haemolyticus (GC 4546), 18 hours at 35° C.): 8 µg/mL (≈ 5.68 µM)
MIC Streptococcus agalactiae (GC 4564) (Streptococcus sp.; [6]): 4 µg/mL (≈ 2.84 µM)
MIC Streptococcus pneumoniae (GC 4565) (Streptococcus sp.; [7]): 1 µg/mL (≈ 0.71 µM)
MIC Streptococcus pyogenes (ID-3187) (Streptococcus sp.; Streptococcus pyogenes (ID-3187)): 2 µg/mL (≈ 1.42 µM)

Cyclo[glycyl-4-chloro-β-methylphenylalanyl-O-[4-O-(4,6-O-cyclopentylidenehexopyranosyl)-hexopyranosyl]tyrosyl-3-(2-iminoimidazolidin-4-yl)seryl-3-(3-hexopyranosyl-2-iminoimidazolidin-4-yl)serylseryl] [Example 202]
MIC Enterococcus avium (GC 4558) (Enterococcus sp.; Enterococcus avium (GC 4558)): 32 µg/mL
MIC Enterococcus faecalis (ATCC 29212) (Enterococcus sp.; [1]): 32 µg/mL
MIC Enterococcus faecalis (GC 2242) (Enterococcus sp.; [2]): 16 µg/mL
MIC Enterococcus faecalis (GC 2691) (Enterococcus sp.; Enterococcus faecalis (GC 2691)): 16 µg/mL
MIC Enterococcus faecalis (GC 3059) (Enterococcus sp.; Enterococcus faecalis (GC 3059)): 64 µg/mL
MIC Enterococcus faecalis (GC 4552) (Enterococcus sp.; [3]): 32 µg/mL
MIC Enterococcus faecalis (GC 4553) (Enterococcus sp.; [4]): 32 µg/mL
MIC Enterococcus faecalis (GC 4554) (Enterococcus sp.; [5]): 32 µg/mL
MIC Enterococcus faecalis (GC 6189) (Enterococcus sp.; Enterococcus faecalis (GC 6189)): 16 µg/mL
MIC Enterococcus faecium (GC 2243) (Enterococcus sp.; Enterococcus faecium (GC 2243)): 32 µg/mL
MIC Enterococcus faecium (GC 4556) (Enterococcus sp.; Enterococcus faecium (GC 4556)): 16 µg/mL
MIC Enterococcus faecium (GC 4557) (Enterococcus sp.; Enterococcus faecium (GC 4557)): 4 µg/mL
MIC Enterococcus avium (GC 4558) (Enterococcus sp.; [8]): 32 µg/mL
MIC Enterococcus faecalis (ATCC 29212) (Enterococcus sp.; [8]): 32 µg/mL
MIC Enterococcus faecalis (GC 2242) (Enterococcus sp.; [8]): 16 µg/mL
MIC Enterococcus faecalis (GC 2691) (Enterococcus sp.; [8]): 16 µg/mL
MIC Enterococcus faecalis (GC 3059) (Enterococcus sp.; [8]): 64 µg/mL
MIC Enterococcus faecalis (GC 4552) (Enterococcus sp.; [8]): 32 µg/mL
MIC Enterococcus faecalis (GC 4553) (Enterococcus sp.; [8]): 32 µg/mL
MIC Enterococcus faecalis (GC 4554) (Enterococcus sp.; [8]): 32 µg/mL
MIC Enterococcus faecalis (GC 6189) (Enterococcus sp.; [8]): 16 µg/mL
MIC Enterococcus faecium (GC 2243) (Enterococcus sp.; [8]): 32 µg/mL
MIC Enterococcus faecium (GC 4556) (Enterococcus sp.; [8]): 16 µg/mL
MIC Enterococcus faecium (GC 4557) (Enterococcus sp.; [8]): 4 µg/mL
MIC Escherichia coli (ATCC 25922) (Escherichia coli): 32 µg/mL
MIC Escherichia coli (GC 4559) (Escherichia coli): 16 µg/mL
MIC Escherichia coli (GC 4560) (Escherichia coli): 2 µg/mL
MIC Staphylococcus aureus-SMITH (GC 4543) (Staphylococcus sp.; broth dilution, 18 hours at 35° C., strain GC 4543): 4 µg/mL
MIC Staphylococcus haemolyticus (GC 4546) (Staphylococcus sp.; broth dilution, 18 hours at 35° C., strain GC 4546): 2 µg/mL
MIC Coagulase Negative Staphylococcus (GC 4547) (Staphylococcus sp.; broth dilution, 18 hours at 35° C., strain GC 4547): 2 µg/mL
MIC Coagulase Negative Staphylococcus (GC 4548) (Staphylococcus sp.; broth dilution, 18 hours at 35° C., strain GC 4548): 2 µg/mL
MIC Coagulase Negative Staphylococcus (GC 4549) (Staphylococcus sp.; broth dilution, 18 hours at 35° C., strain GC 4549): 4 µg/mL
MIC Coagulase Negative Staphylococcus (GC 4551) (Staphylococcus sp.; broth dilution, 18 hours at 35° C., strain GC 4551): 4 µg/mL
MIC Coagulase Negative Staphylococcus (GC 6257) (Staphylococcus sp.; [9]): 2 µg/mL
MIC Staphylococcus aureus (ATCC 29213) (Staphylococcus sp.; strain ATCC 29213): 4 µg/mL
MIC Staphylococcus aureus (ATCC 29213) (Staphylococcus sp.; strain ATCC 29213, broth dilution, 18 hours at 35° C.): 4 µg/mL
MIC Staphylococcus aureus (GC 1131) (Staphylococcus sp.; strain GC 1131): 4 µg/mL
MIC Staphylococcus aureus (GC 1131) (Staphylococcus sp.; strain GC 1131, broth dilution, 18 hours at 35° C.): 4 µg/mL
MIC Staphylococcus aureus (GC 3051) (Staphylococcus sp.): 4 µg/mL
MIC Staphylococcus aureus (GC 3051) (Staphylococcus sp.; [9]): 4 µg/mL
MIC Staphylococcus aureus (GC 3053) (Staphylococcus sp.): 8 µg/mL
MIC Staphylococcus aureus (GC 3053) (Staphylococcus sp.; [9]): 8 µg/mL
MIC Staphylococcus aureus (GC 4541) (Staphylococcus sp.; strain GC 4541): 4 µg/mL
MIC Staphylococcus aureus (GC 4541) (Staphylococcus sp.; strain GC 4541, broth dilution, 18 hours at 35° C.): 4 µg/mL
MIC Staphylococcus aureus (GC 4542) (Staphylococcus sp.; strain GC 4542): 4 µg/mL
MIC Staphylococcus aureus (GC 4542) (Staphylococcus sp.; strain GC 4542, broth dilution, 18 hours at 35° C.): 4 µg/mL
MIC Staphylococcus aureus-SMITH (GC 4543) (Staphylococcus sp.; strain GC 4543): 4 µg/mL
MIC Staphylococcus aureus (GC 4544) (Staphylococcus sp.; strain GC 4544): 4 µg/mL
MIC Staphylococcus aureus (GC 4544) (Staphylococcus sp.; strain GC 4544, broth dilution, 18 hours at 35° C.): 4 µg/mL
MIC Staphylococcus aureus (GC 4545) (Staphylococcus sp.; strain GC 4545): 4 µg/mL
MIC Staphylococcus aureus (GC 4545) (Staphylococcus sp.; strain GC 4545, broth dilution, 18 hours at 35° C.): 4 µg/mL
MIC Staphylococcus haemolyticus (GC 4546) (Staphylococcus sp.; strain GC 4546): 2 µg/mL
MIC Coagulase Negative Staphylococcus (GC 4547) (Staphylococcus sp.; strain GC 4547): 2 µg/mL
MIC Coagulase Negative Staphylococcus (GC 4548) (Staphylococcus sp.; strain GC 4548): 2 µg/mL
MIC Coagulase Negative Staphylococcus (GC 4549) (Staphylococcus sp.; strain GC 4549): 4 µg/mL
MIC Coagulase Negative Staphylococcus (GC 4551) (Staphylococcus sp.; strain GC 4551): 4 µg/mL
MIC Coagulase Negative Staphylococcus (GC 6257) (Staphylococcus sp.): 2 µg/mL
MIC Streptococcus agalactiae (GC 4564) (Streptococcus sp.; [6]): 2 µg/mL
MIC Streptococcus pneumoniae (ATCC 6301) (Streptococcus sp.; Streptococcus pneumoniae (ATCC 6301)): <0.5 µg/mL
MIC Streptococcus pneumoniae (GC 1894) (Streptococcus sp.; Streptococcus pneumoniae (GC 1894)): <0.5 µg/mL
MIC Streptococcus pneumoniae (GC 4565) (Streptococcus sp.; [7]): 8 µg/mL
MIC Streptococcus pyogenes (GC 4563) (Streptococcus sp.; Streptococcus pyogenes (GC 4563)): 1 µg/mL
MIC Streptococcus agalactiae (GC 4564) (Streptococcus sp.; [8]): 2 µg/mL
MIC Streptococcus pneumoniae (ATCC 6301) (Streptococcus sp.; [8]): <0.5 µg/mL
MIC Streptococcus pneumoniae (GC 1894) (Streptococcus sp.; [8]): <0.5 µg/mL
MIC Streptococcus pneumoniae (GC 4565) (Streptococcus sp.; [8]): 8 µg/mL
MIC Streptococcus pyogenes (GC 4563) (Streptococcus sp.; [8]): 1 µg/mL
